Literature values, collected in US20110287097A1, “PHARMACEUTICAL COMPOSITIONS COMPRISING ROPINIROLE” (DR. REDDY'S LABORATORIES, INC., priority 2007, published 2011).

For `CCCN(CCC)CCc1cccc2c1CC(=O)N2` [Ropinirole, 4-[2-(dipropylamino)ethyl]-1,3-dihydro-2H-indol-2-one], the “time to peak plasma concentration” value (after administration of an immediate release tablet) is listed as 1 to 2 h, the absolute systemic bioavailability (in vivo) is listed as 55% and the “mean plasma elimination half-life” value (in vivo) is listed as “approximately 6 hours”.
